Measurements reported in ChEMBL document CHEMBL1201862, “PubChem BioAssay data set” (2004).
Calls of active or inactive are those of the source.

Assays:
[1] = target: T1, Rac GTPase-activating protein 1 (Homo sapiens, UniProt Q9H0H5); test: MgcRacGAP GTPase-activating activity inhibitors, confirmation, biochemical, ADP Hunter fluorescence, primary and confirmatory (AID 624330); assay type: functional
T1 sequence (Q9H0H5 whole entry): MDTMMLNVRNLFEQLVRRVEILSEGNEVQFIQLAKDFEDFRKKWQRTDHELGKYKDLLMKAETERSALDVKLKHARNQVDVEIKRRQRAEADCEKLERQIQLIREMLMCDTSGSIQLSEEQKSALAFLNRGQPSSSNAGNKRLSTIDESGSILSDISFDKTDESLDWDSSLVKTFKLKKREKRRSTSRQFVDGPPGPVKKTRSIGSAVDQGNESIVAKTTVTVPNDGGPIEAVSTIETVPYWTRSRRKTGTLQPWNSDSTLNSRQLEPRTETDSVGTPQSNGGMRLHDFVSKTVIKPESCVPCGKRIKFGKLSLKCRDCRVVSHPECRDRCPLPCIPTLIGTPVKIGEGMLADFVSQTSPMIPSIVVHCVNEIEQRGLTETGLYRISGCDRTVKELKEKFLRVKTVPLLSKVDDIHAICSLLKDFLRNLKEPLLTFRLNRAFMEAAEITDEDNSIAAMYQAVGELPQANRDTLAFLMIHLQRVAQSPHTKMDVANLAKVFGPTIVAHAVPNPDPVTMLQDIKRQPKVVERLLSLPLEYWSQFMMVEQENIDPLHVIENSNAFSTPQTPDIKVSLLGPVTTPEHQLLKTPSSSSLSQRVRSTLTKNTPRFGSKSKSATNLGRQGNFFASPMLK

Cytochrome P450 2C19 = Cytochrome P450 2C19 (Homo sapiens, UniProt P33261); test: Cytochrome panel assay with activity outcomes. Panel member name: p450-cyp2c19 Compounds with AC50 equal or less than 10 uM are considered active; assay type: functional
Chain of Cytochrome P450 2C19 (P33261 whole entry): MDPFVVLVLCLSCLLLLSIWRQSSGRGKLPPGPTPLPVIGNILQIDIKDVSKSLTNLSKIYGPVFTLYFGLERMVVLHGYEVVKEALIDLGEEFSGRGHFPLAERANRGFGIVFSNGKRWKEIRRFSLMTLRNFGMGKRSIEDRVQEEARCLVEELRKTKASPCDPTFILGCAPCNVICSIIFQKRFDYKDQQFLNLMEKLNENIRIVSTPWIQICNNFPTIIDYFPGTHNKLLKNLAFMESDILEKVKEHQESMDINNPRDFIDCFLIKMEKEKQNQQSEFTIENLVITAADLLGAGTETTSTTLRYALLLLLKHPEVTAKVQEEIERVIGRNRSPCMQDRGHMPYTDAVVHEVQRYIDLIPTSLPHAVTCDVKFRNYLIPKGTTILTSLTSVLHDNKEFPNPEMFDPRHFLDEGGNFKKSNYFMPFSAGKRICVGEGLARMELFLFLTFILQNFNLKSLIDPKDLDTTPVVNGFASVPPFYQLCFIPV

Cytochrome P450 1A2 = target: T2, Cytochrome P450 1A2 (Homo sapiens, UniProt P05177);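 further: PubChem cytochrome P450 panel assay, CYP1A2 panel member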
T2 sequence (P05177 whole entry): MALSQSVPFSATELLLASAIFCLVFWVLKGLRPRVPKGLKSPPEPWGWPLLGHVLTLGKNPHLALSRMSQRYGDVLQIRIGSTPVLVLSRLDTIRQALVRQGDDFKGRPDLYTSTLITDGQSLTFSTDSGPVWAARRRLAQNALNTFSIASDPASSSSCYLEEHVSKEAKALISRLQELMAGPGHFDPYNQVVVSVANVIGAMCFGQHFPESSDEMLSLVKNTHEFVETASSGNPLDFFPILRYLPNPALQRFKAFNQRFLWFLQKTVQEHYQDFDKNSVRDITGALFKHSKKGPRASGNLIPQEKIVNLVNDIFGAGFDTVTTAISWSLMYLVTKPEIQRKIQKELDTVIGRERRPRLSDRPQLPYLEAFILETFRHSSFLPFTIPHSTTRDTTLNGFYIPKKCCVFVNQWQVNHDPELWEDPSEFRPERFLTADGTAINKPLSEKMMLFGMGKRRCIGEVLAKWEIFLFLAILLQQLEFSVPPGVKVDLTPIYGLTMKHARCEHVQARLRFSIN

Cytochrome P450 3A4 = Cytochrome P450 3A4 (Homo sapiens, UniProt P08684);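 further: CYP3A4 tested as one member of a cytochrome P450 panel screen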
Chain of Cytochrome P450 3A4 (P08684 whole entry): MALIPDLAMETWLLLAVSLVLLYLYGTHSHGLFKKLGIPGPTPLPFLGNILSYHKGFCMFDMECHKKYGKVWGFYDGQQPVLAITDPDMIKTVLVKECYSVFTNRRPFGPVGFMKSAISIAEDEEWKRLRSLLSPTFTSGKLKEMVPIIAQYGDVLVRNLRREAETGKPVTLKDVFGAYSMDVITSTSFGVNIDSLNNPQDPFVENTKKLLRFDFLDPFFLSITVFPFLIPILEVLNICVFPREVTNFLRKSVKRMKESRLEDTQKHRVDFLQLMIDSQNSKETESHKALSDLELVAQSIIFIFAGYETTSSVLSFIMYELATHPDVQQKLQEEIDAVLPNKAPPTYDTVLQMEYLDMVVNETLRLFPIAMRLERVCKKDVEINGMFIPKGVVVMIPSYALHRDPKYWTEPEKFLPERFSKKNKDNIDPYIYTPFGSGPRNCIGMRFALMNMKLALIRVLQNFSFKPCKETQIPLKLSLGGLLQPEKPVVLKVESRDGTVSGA

Cytochrome P450 2C9 = Cytochrome P450 2C9 (Homo sapiens, UniProt P11712)
Chain of Cytochrome P450 2C9 (P11712 whole entry): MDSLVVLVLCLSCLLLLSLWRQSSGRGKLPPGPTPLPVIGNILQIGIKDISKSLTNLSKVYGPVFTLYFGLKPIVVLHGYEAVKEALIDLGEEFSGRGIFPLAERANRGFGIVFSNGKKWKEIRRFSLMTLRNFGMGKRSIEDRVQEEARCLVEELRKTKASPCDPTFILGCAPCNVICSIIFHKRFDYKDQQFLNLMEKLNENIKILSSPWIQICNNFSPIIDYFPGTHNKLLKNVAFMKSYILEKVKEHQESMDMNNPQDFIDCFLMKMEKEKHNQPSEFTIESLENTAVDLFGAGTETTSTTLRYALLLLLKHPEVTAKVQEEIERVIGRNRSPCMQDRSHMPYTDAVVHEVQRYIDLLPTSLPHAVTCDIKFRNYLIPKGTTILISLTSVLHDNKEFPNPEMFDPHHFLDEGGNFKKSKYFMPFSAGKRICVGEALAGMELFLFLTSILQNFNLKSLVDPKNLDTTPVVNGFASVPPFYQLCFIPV

Row | SMILES | IC50 [1] | AC50 (Cytochrome P450 1A2) | other results
1 | Cc1c(O)ccc(NC(=O)/C=C/c2ccccc2)c1C | 41.8 µM (active) |  | 
2 | CC(C)(C)c1nnc(N/N=C/c2ccc(O)cc2)n(N)c1=O | 123 µM (active) |  | 
3 | O=C(O)c1cc2cc(OCc3ccccc3)ccc2[nH]1 |  | 6.31 µM (inconclusive) | AC50 (Cytochrome P450 2C9): 25.1 µM (inconclusive)
4 | CC1=CC(C)(C)N(C(=O)CNC2CCCC2)c2cc(C)ccc21 | 158 µM (active) |  | 
5 | CCC(C)(C)n1nnnc1C(c1cc2cc3c(cc2nc1O)OCO3)N1CCCCC1 (stereo not given) |  | 17.8 µM (inconclusive) | AC50 (Cytochrome P450 2C9): 0.02 µM (inconclusive)
6 | CCC(=O)OCc1c(C(F)(F)F)nn(C)c1Sc1ccc(F)cc1 |  | 12.6 µM (inconclusive) | AC50 (Cytochrome P450 3A4): 25.1 µM (inconclusive)
7 | Cc1ccc(C)c(OCCCCN2CCCCC2)c1 | 176 µM (active) |  | 

More lines, main results first:

Row | IC50 [1] | AC50 (Cytochrome P450 1A2) | SMILES | other results
8 | 75.5 µM (active) |  | O=C(CNC(=O)c1ccncc1)N/N=C/c1ccc(O)cc1O | 
9 |  | 25.1 µM (inconclusive) | N[C@@H](COP(=O)(O)O)C(=O)O [DEXFOSFOSERINE] | AC50 (Cytochrome P450 2C19): inconclusive; AC50 (Cytochrome P450 3A4): 0.794 µM (inconclusive)
10 | 80.2 µM (active) |  | Cc1ccccc1C(OCC(O)CN1CCN(CCO)CC1)c1ccccc1 (stereo not given) | 
11 | 47 µM (active) |  | O=C(CN1CCN(c2ccc(O)cc2)CC1)NCC(=O)Nc1ccc(F)c(F)c1F | 
12 | 26.6 µM (active) |  | CC1CCC/C(=C\c2ccc(O)cc2)C1=O (stereo not given) | 
13 | 26.9 µM (active) |  | CCCCn1c(C)cc2cc(O)ccc21 | 
14 |  | 39.8 µM (inconclusive) | CCN(C(=O)Cn1c(=O)oc2ccccc21)c1cccc(C(F)(F)F)c1 | AC50 (Cytochrome P450 3A4): 7.08 µM (inconclusive)
